In general, Ki refers to the equilibrium dissociation constant of an inhibitor or competing ligand from its target. Read a low Ki as tighter binding.

The target of this experiment is T1, human A2a receptor (Homo sapiens, UniProt P29274).
T1 construct: purchased Perkin-Elmer RBHA2AM400UA; host or cells: HEK293 cells (membranes)
Nature of the experiment: A2a competition binding assay, Scintillation Proximity technology. As to conditions: membranes from HEK293 cells expressing human A2a receptor; Ki by Cheng-Prusoff equation. The protocol:
Binding affinities of compounds of the invention for the human A2a receptor were determined in a competition binding assay using Scintillation Proximity technology. Thus, […] from HEK293 cells expressing the human A2a receptor were incubated with a compound of the invention at concentrations ranging from 3000 nM to 0.15 nM in a reaction mixture containing also 0.5 nM of a tritiated form of 5-amino-7-[2-phenethyl]-2-(furan-2-yl)-7H-pyrazolo[4,3-e][1,2,4]triazolo[1,5-c]pyrimidine (the tritiated compound) and 100 μg of wheat germ agglutin-coated yttrium silicate SPA beads for one hour at room temperature with agitation. The beads were then allowed to settle to the bottom of the wells for 1 hr, after which the membrane-associated radioactivity was determined by scintillation counting in a TopCount microplate reader. Ki values were determined using the Cheng-Prusoff equation.
HEK293 cells expressing the human, rat, dog or monkey adenosine 2a receptor (Purchased from Perkin-Elmer # RBHA2AM400UA).
The Tritiated compound was prepared in-house by MRL Radiochemistry according to published methods.
Wheat germ agglutinin-coated yttrium silicate SPA beads (GE Healthcare #RPNQ0023). Dilute to 25 mg/ml in assay buffer.
Assay Buffer was prepared in house: Dulbecco's calcium and magnesium free phosphate buffered saline+10 mM MgCl2
Adenosine deaminase from calf intestine, 10 mg/2 ml (Roche #10 102 105 001).
A2a antagonist standard (9-chloro-1-(2-furanyl)-[1,2,4]triazolo1,5-c]quinazolin-5-amine from Tocris Bioscience)
Make eight 1:3 serial dilutions in 100% DMSO from a 3 mM compound stock
Transfer 50 nl of compound into a 384-well OptiPlate (Perkin Elmer).
Typically, final concentrations of compound used in the assay ranged from 3000 nM to 0.152 nM.
Dilute a solution of the Tritiated compound to 1.25 nM in assay buffer. This is a 2.5× solution. The final concentration in the assay is 0.5 nM. Calculate the concentration by counting two 5 μl aliquots.
Use 0.25 ug of membrane/well. Dilute membranes to 9.7 μg/ml in assay buffer. Treat with 20 ug/ml adenosine deaminase (ADA) for 15 minutes at room temperature to degrade endogenous adenosine.
Use 100 μg/well wheat germ agglutinin-coated yttrium silicate SPA beads.
Mix ADA-treated membranes and SPA beads together for 30 min prior to assay.
To the Perkin-Elmer Optiplate-384 containing the compound titration add 20 μl of 2.5× solution of the Tritiated compound and 30 μl of the membrane-bead mixture. Incubate for one hour at room temperature with agitation.
Include total binding (assay buffer+1% DMSO) and non-specific binding (CGS15943, 1 μM) wells.
Allow the beads to settle for one hour.
A curve fitting program (i.e., Prism, Activity Base, Chemcart) is used to determine the EC50. The Ki value is calculated using the Cheng-Prusoff equation. Ki=EC50/(1+(radioligand concentration/Kd))
(In general: Scintillation proximity formats need no separation of bound from free tracer.)

The structures appear in SMILES notation.

T1 sequence (P29274 whole entry): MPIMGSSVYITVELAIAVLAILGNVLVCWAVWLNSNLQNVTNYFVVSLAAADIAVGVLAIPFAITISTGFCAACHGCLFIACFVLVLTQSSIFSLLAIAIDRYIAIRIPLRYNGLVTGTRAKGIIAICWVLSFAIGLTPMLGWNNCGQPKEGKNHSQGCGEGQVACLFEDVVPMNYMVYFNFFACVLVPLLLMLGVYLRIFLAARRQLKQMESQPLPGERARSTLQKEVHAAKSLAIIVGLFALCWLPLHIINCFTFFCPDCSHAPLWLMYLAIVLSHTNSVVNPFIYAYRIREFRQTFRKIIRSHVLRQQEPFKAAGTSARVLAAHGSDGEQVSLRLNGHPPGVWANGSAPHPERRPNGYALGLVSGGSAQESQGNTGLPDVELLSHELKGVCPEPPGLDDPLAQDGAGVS

For the compound `Cc1nc(C(=O)NC(C)(C)c2ccccn2)c(N)nc1-c1cnco1` [Ex-259, 3-amino-6-methyl-N-(1-methyl-1-pyridin-2-ylethyl)-5-(1,3-oxazol-5-yl)pyrazine-2-carboxamide], the Ki was determined as 403 nM.

`Cc1nc(C(=O)N[C@@H]2c3ccccc3C[C@@H]2O)c(N)nc1-c1ncco1` [Ex-156, 3-amino-N-[(1R,2S)-2-hydroxy-2,3-dihydro-1H-inden-1-yl]-6-methyl-5-(1,3-oxazol-2-yl)pyrazine-2-carboxamide] showed an inhibition constant Ki of 68.9 nM.

For `Cc1cnn(-c2nc(N)c(C(=O)NCc3ncccc3C)nc2C)c1` [Ex-341, 3-amino-6-methyl-5-(4-methyl-1H-pyrazol-1-yl)-N-[(3-methylpyridin-2-yl)methyl]pyrazine-2-carboxamide], the inhibitory constant (Ki) stood at 105 nM.

Consider `Nc1nc(-n2cccn2)c(Cl)nc1C(=O)NCc1ccc(F)cc1F` [Ex-331, 3-amino-6-chloro-N-(2,4-difluorobenzyl)-5-(1H-pyrazol-1-yl)pyrazine-2-carboxamide], for which the Ki came out at 75.4 nM.

Regarding `Nc1nc(-n2nccn2)c(Cl)nc1C(=O)NCc1cccc2c1C(=O)NC2` [Ex-314, 3-amino-6-chloro-N-[(3-oxo-2,3-dihydro-1H-isoindol-4-yl)methyl]-5-(2H-1,2,3-triazol-2-yl)pyrazine-2-carboxamide], the Ki is 3.7 nM.

On to `Cc1nc(C(=O)N[C@@H]2CCC[C@H]2N(C)C)c(N)nc1-c1ncco1` [Ex-204, 3-amino-N-[(1R,2R)-2-(dimethylamino)cyclopentyl]-6-methyl-5-(1,3-oxazol-2-yl)pyrazine-2-carboxamide], for which the affinity corresponds to a Ki of 1500 nM. This Ki lies about 410-fold higher than the previous one.

Take `Cc1nc(C(=O)NCc2cc3ccccc3cn2)c(N)nc1-c1ncco1` [Ex-29, 3-amino-N-(isoquinolin-3-ylmethyl)-6-methyl-5-(1,3-oxazol-2-yl)pyrazine-2-carboxamide]: the inhibition constant Ki was determined as 0.336 nM.

For the compound `Cc1ccc(C(C)(C)O)nc1CNC(=O)c1nc(C)c(-c2ncco2)nc1N` [Ex-236, 3-amino-N-{[6-(1-hydroxy-1-methylethyl)-3-methylpyridin-2-yl]methyl}-6-methyl-5-(1,3-oxazol-2-yl)pyrazine-2-carboxamide], the Ki was 1.61 nM.

Turning to `Cc1cccnc1CNC(=O)c1nc(C)c(-n2nccn2)nc1N` [Ex-277, 3-amino-6-methyl-N-[(3-methylpyridin-2-yl)methyl]-5-(2H-1,2,3-triazol-2-yl)pyrazine-2-carboxamide], affinity was put at a Ki of 3.3 nM.

For `Cc1cnn(-c2nc(N)c(C(=O)NCc3cn4ccsc4n3)nc2Cl)c1` [Ex-359, 3-amino-6-chloro-N-(imidazo[2,1-b][1,3]thiazol-6-ylmethyl)-5-(4-methyl-1H-pyrazol-1-yl)pyrazine-2-carboxamide], affinity was put at a Ki of 90 nM.

`Cc1nc(C(=O)NC(C)(C)c2ccc(F)c(F)c2)c(N)nc1-c1cnco1` [Ex-260, 3-amino-N-[1-(3,4-difluorophenyl)-1-methylethyl]-6-methyl-5-(1,3-oxazol-5-yl)pyrazine-2-carboxamide]: affinity was put at a Ki of 786 nM.

Compound `Nc1nc(-n2cccn2)c(Cl)nc1C(=O)NCc1ccc(F)cc1` [Ex-330, 3-amino-6-chloro-N-(4-fluorobenzyl)-5-(1H-pyrazol-1-yl)pyrazine-2-carboxamide] gave a Ki of 61.5 nM.

Consider `Cc1nc(C(=O)NCc2cccc(C(C)(C)O)n2)c(N)nc1-c1ncco1` [Ex-119], for which the inhibition constant (Ki) is 6.24 nM.

The compound `Cc1nc(C(=O)N(C)[C@@H]2CCC[C@H]2O)c(N)nc1-c1ncco1` [Ex-205, 3-amino-N-[(1R,2R)-2-hydroxycyclopentyl]-N,6-dimethyl-5-(1,3-oxazol-2-yl)pyrazine-2-carboxamide] returned a Ki of 385 nM. Against the preceding compound, the Ki is about 62-fold higher.

Turning to `Cc1nc(C(=O)NCc2cccn2C)c(N)nc1-c1ncco1` [Ex-141, 3-amino-6-methyl-N-[(1-methyl-1H-pyrrol-2-yl)methyl]-5-(1,3-oxazol-2-yl)pyrazine-2-carboxamide], the Ki turned out to be 0.391 nM.

Take `CCc1c(F)ccnc1CNC(=O)c1nc(C)c(-c2ncco2)nc1N` [Ex-163, 3-amino-N-[(3-ethyl-4-fluoropyridin-2-yl)methyl]-6-methyl-5-(1,3-oxazol-2-yl)pyrazine-2-carboxamide]: the inhibition constant (Ki) was found to be 0.197 nM.

Turning to `Cc1nc(C(=O)N[C@H]2COc3ccccc32)c(N)nc1-c1ncco1` [Ex-147, 3-amino-N-[(3R)-2,3-dihydro-1-benzofuran-3-yl]-6-methyl-5-(1,3-oxazol-2-yl)pyrazine-2-carboxamide], the Ki was 0.601 nM.

`Nc1nc(-n2nccn2)c(Cl)nc1C(=O)NCc1cnc2ccccn12` [Ex-305, 3-amino-6-chloro-N-(imidazo[1,2-a]pyridin-3-ylmethyl)-5-(2H-1,2,3-triazol-2-yl)pyrazine-2-carboxamide] came in with a Ki of 49.5 nM.

Compound `Cc1ccc(C)c(CNC(=O)c2nc(C)c(-c3ncco3)nc2N)n1` [Ex-41, 3-amino-N-[(3,6-dimethylpyridin-2-yl)methyl]-6-methyl-5-(1,3-oxazol-2-yl)pyrazine-2-carboxamide] yielded an inhibitory constant (Ki) of 0.593 nM.

With `Cc1cc(CNC(=O)c2nc(C)c(-c3ncco3)nc2N)ccc1F` [Ex-137, 3-amino-N-(4-fluoro-3-methylbenzyl)-6-methyl-5-(1,3-oxazol-2-yl)pyrazine-2-carboxamide], the Ki was found to be 0.307 nM.

`Cc1cccnc1CNC(=O)c1nc(C)c(-c2nc(C(F)(F)F)co2)nc1N` [Ex-379, 3-amino-6-methyl-N-[(3-methylpyridin-2-yl)methyl]-5-[4-(trifluoromethyl)-1,3-oxazol-2-yl]pyrazine-2-carboxamide] displayed an inhibition constant (Ki) of 1490 nM. This Ki is about 4900-fold higher than that of the compound before.

Take `Cc1cc(C)c(CNC(=O)c2nc(C)c(-c3ncco3)nc2N)c(C)c1` [Ex-136, 3-amino-6-methyl-5-(1,3-oxazol-2-yl)-N-(2,4,6-trimethylbenzyl)pyrazine-2-carboxamide]: affinity was put at a Ki of 0.267 nM.

Take `Cc1ccc2nc(CNC(=O)c3nc(C)c(-c4ncco4)nc3N)cn2c1` [Ex-102, 3-amino-6-methyl-N-[(6-methylimidazo[1,2-a]pyridin-2-yl)methyl]-5-(1,3-oxazol-2-yl)pyrazine-2-carboxamide]: the affinity, expressed as Ki, was 11.9 nM.

As to `Cc1cccc(CNC(=O)c2nc(C)c(-c3cnco3)nc2N)n1` [Ex-263, 3-amino-6-methyl-N-[(6-methylpyridin-2-yl)methyl]-5-(1,3-oxazol-5-yl)pyrazine-2-carboxamide], the Ki turned out to be 3.75 nM.

The compound `Cc1ccc(O)c(CNC(=O)c2nc(C)c(-c3ncco3)nc2N)c1` [Ex-154, 3-amino-N-(2-hydroxy-5-methylbenzyl)-6-methyl-5-(1,3-oxazol-2-yl)pyrazine-2-carboxamide] gave a Ki of 0.125 nM.

On to `Nc1nc(-n2ccnn2)c(Cl)nc1C(=O)NCc1ccccc1C(F)(F)F` [Ex-268, 3-amino-6-chloro-5-(1H-1,2,3-triazol-1-yl)-N-[2-(trifluoromethyl)benzyl] pyrazine-2-carboxamide], for which affinity was put at a Ki of 359 nM.

Consider `Cc1nc(C(=O)N[C@@H]2CCC[C@H]2O)c(N)nc1-c1ncco1` [Ex-202, 3-amino-N-[(1R,2R)-2-hydroxycyclopentyl]-6-methyl-5-(1,3-oxazol-2-yl)pyrazine-2-carboxamide], for which the inhibition constant Ki turned out to be 2.22 nM.

For the compound `Cc1nc(C(=O)N2CCC2c2ccccc2)c(N)nc1-c1ncco1` (stereo not shown) [Ex-131, 5-methyl-6-(1,3-oxazol-2-yl)-3-[(2-phenylazetidin-1-yl)carbonyl]pyrazin-2-amine], affinity was put at a Ki of 10.3 nM.

Source of the values: patent US10472347B2, “Aminopyrazine compounds with A2A antagonist properties” (Merck Sharp & Dohme Corp., priority 2014, dated 2019).
